Source: US4024277A, “Phosphoro-aminosulfenyl derivatives of benzofuran carbamates” (priority 1975, dated 1977)

Key:
[1] = system: granary weevil; experiment: Seven-day residual insecticidal activity, granary weevil; type: in vivo, Sitophilus granarius (Linnaeus); conditions: Sitophilus granarius, 48-hour exposure, read-out: % Kill, Granary Weevil
From the text: (§1) b. Seven-Day Residual Insecticidal Activity
(§2) In this test, a candidate insecticide, in solution, is applied to uninfested plants or containers by dipping or spraying. A seven-day holding period is necessary before infestation. A 48-hour exposure period is observed before evaluation of the tests. The insect species used in this type of test are the same as those listed under initial activity.

[2] = system: Mexican bean beetle; experiment: Systemic insecticidal activity (soil/water), Mexican bean beetle; type: in vivo, Epilachna varivestis Mulsant; conditions: Epilachna varivestis, 48-hour exposure, read-out: % Kill, Mexican Bean Beetle
Description: (§3) c. Systemic Insecticidal Acitivity (Soil/Water)
(§4) In this test, a candidate insecticide, in solution, is added to the soil of either uninfested pinto bean seedlings (Phaseolus vulgaris) or uninfested broad bean seedlings (Vicia faba var. Windsor). The plant species used depend on the insect species in the test. Usually, a 72-hour translocation period before infestation is required, followed by a 48-hour exposure period, before evaluation of the tests. The insect species used in the systemic tests are Mexican bean beetle, southern armyworm, pea aphid, and twospotted spider mite.

[3] = system: pea aphid; experiment: Initial insecticidal activity, pea aphid; type: in vivo, Acyrthosiphon pisum (Harris); conditions: Acyrthosiphon pisum, 48-hour exposure, read-out: % Kill, Pea Aphid
From the text: (§5) a. Initial Insecticidal Activity
(§6) In this test, a candidate insecticide, in solution, is applied to either infested or uninfested plants or containers by spraying or dipping. (The preferred test procedure varies with insect species. The dipping method is better than the spraying method, and vice versa, for certain species of insects. Also some species are better adapted to the test by infesting after the chemical treatment rather than before.) Once the tests have been established, a 48-hour exposure period is observed before reading the tests. Insect species included in these tests are Mexican bean beetle (Epilachna varivestis Mulsant), pea aphid [Acyrthosiphon pisum (Harris)], southern armyworm [Spodoptera eridania (Cramer)], twospotted spider mite (Tetranychus urticae Koch), large milkweed bug [Oncopeltus fasciatus (Dallas)], plum curculio [Conotrachelus nenuphar (Herbst)], confused flour beetle (Tribolium confusum Jacquelin duVal) and granary weevil [Sitophilus granarius (Linnaeus)]. Test results are set forth in Table I. A control sample, comprising the solution without the candidate insecticide, is also included.

[4] = system: pea aphid; experiment: Systemic insecticidal activity (soil/water), pea aphid; type: in vivo, Acyrthosiphon pisum (Harris); conditions: Acyrthosiphon pisum, 48-hour exposure, read-out: % Kill, Pea Aphid
Description: as §3, §4

[5] = system: southern armyworm; experiment: Systemic insecticidal activity (soil/water), southern armyworm; type: in vivo, Spodoptera eridania (Cramer); conditions: Spodoptera eridania, 48-hour exposure, read-out: % Kill, Southern Armyworm
Description: as §3, §4

[6] = system: granary weevil; experiment: Initial insecticidal activity, granary weevil; type: in vivo, Sitophilus granarius (Linnaeus); conditions: Sitophilus granarius, 48-hour exposure, read-out: % Kill, Granary Weevil
From the text: as §5, §6

[7] = system: pea aphid; experiment: Seven-day residual insecticidal activity, pea aphid; type: in vivo, Acyrthosiphon pisum (Harris); conditions: Acyrthosiphon pisum, 48-hour exposure, read-out: % Kill, Pea Aphid
From the text: as §1, §2

[8] = system: female house flies (resistant); experiment: Level II topical test, house flies; type: in vivo, Musca domestica Linnaeus; conditions: HF (female, resistant), one microgram topically per insect
Description: e. Insecticidal Activity Against House Flies and German Cockroaches
In a Level II test the compounds of this invention were tested for insecticidal activity against female house flies (resistant) and male German cockroaches. Ten insects were anesthetized with carbon dioxide and placed in a container for about 2 hours, during which time the insects recovered to normal activity. The container confining the insects is fitted with a plunger which is used to force the insects against a nylon mesh at one end of the container. One microliter of an acetone solution containing one microgram of the candidate insecticide was applied topically to each insect. The plunger was withdrawn and the insects were allowed to move freely about the container. Knockdown counts were recorded 10 minutes after treatment of house flies and 30 minutes after treatment of cockroaches.

[9] = system: large milkweed bug; experiment: Initial insecticidal activity, milkweed bug; type: in vivo, Oncopeltus fasciatus (Dallas); conditions: Oncopeltus fasciatus, 48-hour exposure, read-out: % Kill, Milkweed Bug
From the text: as §5, §6

[10] = system: plum curculio; experiment: Initial insecticidal activity, plum curculio; type: in vivo, Conotrachelus nenuphar (Herbst); conditions: Conotrachelus nenuphar, 48-hour exposure, read-out: % Kill, Plum Curculio
From the text: as §5, §6

[11] = system: large milkweed bug; experiment: Seven-day residual insecticidal activity, milkweed bug; type: in vivo, Oncopeltus fasciatus (Dallas); conditions: Oncopeltus fasciatus, 48-hour exposure, read-out: % Kill, Milkweed Bug
From the text: as §1, §2

[12] = Mammalian toxicity, 14-day LD50 in rats; conditions: rat, in vivo, Wistar derived albino rats, method of Miller and Tainter
From the text: The compounds of this invention are characterized by advantageous mammalian toxicity values when compared with values for related compounds. This is shown by comparative values obtained with Wistar derived albino rats in 14-day tests. The animals were fed, housed and watered in accordance with standard laboratory procedures. The 14-day LD50 determination was estimated in accord with the method of Miller and Tainter (Experimental Biology and Medicine, 57, pp. 261-264, 1944).

CCOP(=O)(OCC)N(C)SN(C)C(=O)Oc1cccc2c1OC(C)(C)C2 [Example 1(c), 2,3-dihydro-2,2-dimethyl-7-benzofuranyl [(N-diethoxyphosphinyl) (N-methyl)-aminosulfenyl][methyl]carbamate]
mortality at 39 ppm ([1]; 39 ppm): 8%
mortality at 156 ppm ([1]; 156 ppm): 97%
mortality at 1250 ppm ([1]; 1250 ppm): 100%
mortality at 39 ppm ([2]; 39 ppm): 100%
mortality at 156 ppm ([2]; 156 ppm): 95%
mortality at 39 ppm ([3]; 39 ppm): 0%
mortality at 156 ppm ([3]; 156 ppm): 100%
mortality at 1250 ppm ([3]; 1250 ppm): 100%
mortality at 39 ppm ([4]; 39 ppm): 100%
mortality at 156 ppm ([4]; 156 ppm): 100%
mortality at 39 ppm ([5]; 39 ppm): 0%
mortality at 156 ppm ([5]; 156 ppm): 92%
mortality at 39 ppm ([6]; 39 ppm): 30%
mortality at 156 ppm ([6]; 156 ppm): 100%
mortality at 1250 ppm ([6]; 1250 ppm): 100%
mortality at 39 ppm ([7]; 39 ppm): 0%
mortality at 156 ppm ([7]; 156 ppm): 0%
mortality at 1250 ppm ([7]; 1250 ppm): 100%
% Knockdown ([8]; 10 minutes): 0%
mortality at 0.001 mg ([8]; Musca domestica, topical, read-out: % Kill): 20%
mortality at 39 ppm ([9]; 39 ppm): 100%
mortality at 156 ppm ([9]; 156 ppm): 100%
mortality at 1250 ppm ([9]; 1250 ppm): 100%
mortality at 39 ppm ([10]; 39 ppm): 0%
mortality at 156 ppm ([10]; 156 ppm): 15%
mortality at 1250 ppm ([10]; 1250 ppm): 100%
mortality at 39 ppm ([11]; 39 ppm): 55%
mortality at 156 ppm ([11]; 156 ppm): 100%
mortality at 1250 ppm ([11]; 1250 ppm): 100%
LD50 at 336 h [12]: 146 mg/kg
